Experimental data published in patent US20250353848A1, “HETEROCYCLIC PAD4 INHIBITORS” (Celgene Corporation, priority 2022, published 2025).

How the values were obtained:
hPAD4 enzyme [1] = biological target: T1, hPAD4 enzyme (Homo sapiens, UniProt Q9UM07); experiment: RFMS Assay 1 (rapid-fire mass spectrum PAD4 inhibition assay, BAEE substrate); type: biochemical; details: 5 nM hPAD4 enzyme, 250 μM BAEE, 30 mins compound and enzyme preincubation at 37° C., 90 min enzyme/substrate reaction
How it was run: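 Human PAD4 (5 nM) preincubated 30 min at 37 °C with compound (top 50 μM, 0.5% DMSO), then 250 μM BAEE for 90 min at 37 °C in pH 7.5 HEPES with 50 μM calcium, 5 μM TPEN, 1 mM DTT. Product derivatized with phenyl glyoxal; citrulline product quantified by RapidFire MS/MS MRM, normalized to internal standard.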

hPAD4 enzyme [2] = biological target: T1, hPAD4 enzyme; experiment: RFMS Assay 2 (rapid-fire mass spectrum PAD4 inhibition assay, peptide substrate); type: biochemical; details: 35 nM recombinant human PAD4, substrate TSTGGRQGSHH, room temperature for 30 minutes; read-out: human PAD4 (hPAD4) IC50, RFMS Assay 2
Protocol: Stock compounds were dissolved and stored in 100% DMSO. Compound solutions were prepared via serial dilution at 3-fold intervals in DMSO with top compound concentration at […] in each assay. 0.25 μl of compound solution was transferred from the compound plate to the assay plate by using an acoustic dispenser. Final assay conditions: • Total reaction volume: 25 μl • Assay buffer: […] pH 7.4, 200 mM NaCl, 2 mM CaCl2, 5 mM DTT • 35 nM recombinant human PAD4 • 500 µM TSTGGRQGSHH (SEQ ID NO: 1) • 1.2% DMSO • Stop solution: 10% formic acid
Reaction mixtures were incubated at room temperature for 30 minutes. 10 μl each of the reaction mixtures was then mixed with 40 μl of 10% formic acid in a microtiter plate. The plate was frozen at −80° C. before shipping out on dry ice for RapidFire mass spectroscopy analysis.
Thawed samples were loaded onto the Rapid Fire 300 system (Agilent) wherein they were first sipped for 250 ms and then loaded onto a Agilent “C” (C18) cartridge using a mobile phase of water containing 0.09% formic acid/0.01% trifluoroacetic acid for 3000 ms desalting flowing at a rate of 1.5 ml/min. Once the samples were loaded and washed, a mobile phase of acetonitrile containing 0.09% formic acid/0.01% trifluoroacetic acid was used to elute the samples directly onto a Sciex API4000 triple quadrupole mass spectrometer for 3000 ms at a flow rate of 1.25 ml/min.
MRM transitions for substrate and product were monitored in positive ESI mode at m/z=562.3/969.7 and m/z=562.8/541.3 respectively. The dwell time for each transition was set at 100 ms, and the ESI voltage was used at 5500 with a source temperature of 650° C. Extracted ion peaks for each transition were integrated using the Rapid Fire Integrator software.

T1 sequence (Q9UM07 whole entry): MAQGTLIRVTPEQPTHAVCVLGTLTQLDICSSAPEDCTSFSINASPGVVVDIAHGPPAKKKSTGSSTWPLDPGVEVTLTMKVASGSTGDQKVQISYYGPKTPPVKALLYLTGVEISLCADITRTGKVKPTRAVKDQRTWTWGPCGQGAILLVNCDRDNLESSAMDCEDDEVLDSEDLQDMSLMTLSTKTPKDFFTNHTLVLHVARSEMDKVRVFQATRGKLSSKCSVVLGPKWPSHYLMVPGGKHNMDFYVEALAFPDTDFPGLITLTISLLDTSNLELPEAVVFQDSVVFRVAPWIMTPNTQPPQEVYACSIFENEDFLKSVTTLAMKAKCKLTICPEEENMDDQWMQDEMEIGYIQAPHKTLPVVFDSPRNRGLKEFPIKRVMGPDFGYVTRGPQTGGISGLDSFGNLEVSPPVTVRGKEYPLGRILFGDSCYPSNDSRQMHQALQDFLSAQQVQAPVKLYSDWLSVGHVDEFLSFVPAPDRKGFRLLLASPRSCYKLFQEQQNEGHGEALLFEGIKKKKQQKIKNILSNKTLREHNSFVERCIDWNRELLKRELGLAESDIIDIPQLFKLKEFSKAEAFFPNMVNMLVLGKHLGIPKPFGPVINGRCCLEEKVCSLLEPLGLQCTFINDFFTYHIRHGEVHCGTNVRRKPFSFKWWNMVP

What does the source list for `Cn1c(-c2cc3cccc(OCCc4ccn[nH]4)c3n2CC2CC2)nc2cc3c(nc21)CCN(C[C@H](N)CF)C3=O` [Example 43, (S)-2-(7-(2-(1H-pyrazol-5-yl)ethoxy)-1-(cyclopropylmethyl)-1H-indol-2-yl)-7-(2-amino-3-fluoropropyl)-3-methyl-3,5,6,7-tetrahydro-8H-imidazo[4,5-b][1,6]naphthyridin-8-one]?
IC50 (hPAD4 enzyme [1]): ≤ 10 nM; IC50 (hPAD4 enzyme [2]): 11 to 100 nM

What does the source list for `Cn1c(-c2cc3cccnc3n2CC2CC2)nc2cc3c(nc21)CCN(C[C@H](N)CF)C3=O` [Example 19, (S)-7-(2-amino-3-fluoropropyl)-2-(1-(cyclopropylmethyl)-1H-pyrrolo[2,3-b]pyridin-2-yl)-3-methyl-3,5,6,7-tetrahydro-8H-imidazo[4,5-b][1,6]naphthyridin-8-one]?
IC50 (hPAD4 enzyme [1]): 501 to 1000 nM; IC50 (hPAD4 enzyme [2]): > 1000 nM

With `[2H]C([2H])(Oc1cccc2cc(-c3nc4cc5c(nc4n3C)CCN(C[C@H](N)CF)C5=O)n(CC3CC3)c12)C([2H])([2H])n1ccnc1` [Example 95, (S)-2-(7-(2-(1H-imidazol-1-yl)ethoxy-1,1,2,2-d4)-1-(cyclopropylmethyl)-1H-indol-2-yl)-7-(2-amino-3-fluoropropyl)-3-methyl-3,5,6,7-tetrahydro-8H-imidazo[4,5-b][1,6]naphthyridin-8-one] as the compound, how does the IC50 (hPAD4 enzyme [1]) read?
Its IC50 is at most 10 nM.

And the IC50 (hPAD4 enzyme [2])?
Its IC50 is 11 to 100 nM.

What does the source list for `COc1cccc2cc(-c3nc4cc5c(nc4n3C)CCN(C[C@H](N)CF)C5=O)n(CC3OCCO3)c12` [Example 16, (S)-2-(1-((1,3-dioxolan-2-yl)methyl)-7-methoxy-1H-indol-2-yl)-7-(2-amino-3-fluoropropyl)-3-methyl-3,5,6,7-tetrahydro-8H-imidazo[4,5-b][1,6]naphthyridin-8-one]?
IC50 (hPAD4 enzyme [1]): 101 to 500 nM; IC50 (hPAD4 enzyme [2]): 101 to 500 nM

For `Cn1c(-c2cc3cccc(OCCc4cnoc4)c3n2CC2CC2)nc2cc3c(nc21)CCN(C[C@H](N)CF)C3=O` [Example 39, (S)-7-(2-amino-3-fluoropropyl)-2-(1-(cyclopropylmethyl)-7-(2-(isoxazol-4-yl)ethoxy)-1H-indol-2-yl)-3-methyl-3,5,6,7-tetrahydro-8H-imidazo[4,5-b][1,6]naphthyridin-8-one], which IC50 (hPAD4 enzyme [1]) is on record?
The IC50 was at most 10 nM.

And the IC50 (hPAD4 enzyme [2])?
Its IC50 is 11 to 100 nM.

What does the source list for `Cn1c(-c2cc3ccnc(OC[C@@H]4CNC(=O)C4)c3n2CC2CC2)nc2cc3c(nc21)CCN(C[C@H](N)CF)C3=O` [Example 82, 7-((S)-2-amino-3-fluoropropyl)-2-(1-(cyclopropylmethyl)-7-(((S)-5-oxopyrrolidin-3-yl)methoxy)-1H-pyrrolo[2,3-c]pyridin-2-yl)-3-methyl-3,5,6,7-tetrahydro-8H-imidazo[4,5-b][1,6]naphthyridin-8-one]?
IC50 (hPAD4 enzyme [1]): 101 to 500 nM; IC50 (hPAD4 enzyme [2]): 101 to 500 nM

Which results are given for `C[C@H](COc1cccc2cc(-c3nc4cc5c(nc4n3C)CCN(C[C@H](N)CF)C5=O)n(CC3CC3)c12)n1cnc(F)c1` [Example 85, 7-((S)-2-amino-3-fluoropropyl)-2-(1-(cyclopropylmethyl)-7-((R)-2-(4-fluoro-1H-imidazol-1-yl)propoxy)-1H-indol-2-yl)-3-methyl-3,5,6,7-tetrahydro-8H-imidazo[4,5-b][1,6]naphthyridin-8-one]?
IC50 (hPAD4 enzyme [1]): ≤ 10 nM; IC50 (hPAD4 enzyme [2]): 11 to 100 nM

For `Cc1cn(CCOc2cccc3cc(-c4nc5cc6c(nc5n4C)CCN(C[C@H](N)CF)C6=O)n(CC4CC4)c23)cn1` [Example 72, (S)-7-(2-amino-3-fluoropropyl)-2-(1-(cyclopropylmethyl)-7-(2-(4-methyl-1H-imidazol-1-yl)ethoxy)-1H-indol-2-yl)-3-methyl-3,5,6,7-tetrahydro-8H-imidazo[4,5-b][1,6]naphthyridin-8-one], which IC50 (hPAD4 enzyme [1]) is on record?
The IC50 was 11 to 100 nM.

And the IC50 (hPAD4 enzyme [2])?
Its IC50 is 101 to 500 nM.

What does the source list for `COc1cccc2cc(-c3nc4cc5c(nc4n3C)CCN(C[C@H]3COCCN3)C5=O)n(CC3CC3)c12` [Example 27, (S)-2-(1-(cyclopropylmethyl)-7-methoxy-1H-indol-2-yl)-3-methyl-7-(morpholin-3-ylmethyl)-3,5,6,7-tetrahydro-8H-imidazo[4,5-b][1,6]naphthyridin-8-one]?
IC50 (hPAD4 enzyme [1]): 501 to 1000 nM; IC50 (hPAD4 enzyme [2]): > 1000 nM
